Legend:
wild type FGFR-4 = wild type FGFR-4 (Homo sapiens (Human), UniProt P22455); experiment: FGFR-4 wild type assay at Km (Caliper electrophoretic mobility shift); assay type: biochemical; settings: wild type FGFR-4, 400 uM ATP, 25 C, 90 minutes; read-out: FGFR4 IC50
Method: In order to assess the activity of chemical compounds against the relevant kinase of interest, the Caliper LifeSciences electrophoretic mobility shift technology platform is utilized. Fluorescently labeled substrate peptide is incubated in the presence of dosed levels of compounds, a set concentration of kinase and of ATP, so that a reflective proportion of the peptide is phosphorylated. At the end of the reaction, the mix of phosphorylated (product) and non-phosphorylated (substrate) peptides are passed through the microfluidic system of the Caliper LabChip® EZ Reader II, under an applied potential difference. The presence of the phosphate group on the product peptide provides a difference in mass and charge between the product peptide and the substrate peptide, resulting in a separation of the substrate and product pools in the sample. As the pools pass the LEDS within the instrument, these pools are detected and resolved as separate peaks. The ratio between these peaks therefore reflects the activity of the chemical matter at that concentration in that well, under those conditions.
The reaction was stopped by the addition of 70 ul of Stop buffer (100 mM HEPES pH 7.5, 0.015% Brij 35, 35 mM EDTA and 0.2% of Coating Reagent 3 (Caliper Lifesciences)). The plate was then read on a Caliper LabChip® EZ Reader II (protocol settings: −1.9 psi, upstream voltage −700, downstream Voltage −3000, post sample sip 35S).

[1] = system: pMAPK (Thr202/Tyr204) in MDA-MB453 cells; experiment: Detection of pMAPK (Thr202/Tyr204) using Alpha Elisa (pERK alphaLISA) in MDA-MB453 cells; assay type: cell-based; settings: Homo sapiens, MDA-MB-453, 1 hr incubation with compound
Method: MDA-MB453 cells were plated in 96-well cell culture plates at a density of 1×10^5 cells. Cells were allowed to attach, and growth media was replaced with serum free media. Compounds were added at the indicated concentrations. Following 1 hr incubation in the presence of compound, cells were collected. Cell lysates were prepared and processed according to manufacturer instruction (AlphaScreen® SureFire™ Phospho-ERK 1/2 Kit (Perkin Elmer).

Chain of wild type FGFR-4 (P22455 22-802): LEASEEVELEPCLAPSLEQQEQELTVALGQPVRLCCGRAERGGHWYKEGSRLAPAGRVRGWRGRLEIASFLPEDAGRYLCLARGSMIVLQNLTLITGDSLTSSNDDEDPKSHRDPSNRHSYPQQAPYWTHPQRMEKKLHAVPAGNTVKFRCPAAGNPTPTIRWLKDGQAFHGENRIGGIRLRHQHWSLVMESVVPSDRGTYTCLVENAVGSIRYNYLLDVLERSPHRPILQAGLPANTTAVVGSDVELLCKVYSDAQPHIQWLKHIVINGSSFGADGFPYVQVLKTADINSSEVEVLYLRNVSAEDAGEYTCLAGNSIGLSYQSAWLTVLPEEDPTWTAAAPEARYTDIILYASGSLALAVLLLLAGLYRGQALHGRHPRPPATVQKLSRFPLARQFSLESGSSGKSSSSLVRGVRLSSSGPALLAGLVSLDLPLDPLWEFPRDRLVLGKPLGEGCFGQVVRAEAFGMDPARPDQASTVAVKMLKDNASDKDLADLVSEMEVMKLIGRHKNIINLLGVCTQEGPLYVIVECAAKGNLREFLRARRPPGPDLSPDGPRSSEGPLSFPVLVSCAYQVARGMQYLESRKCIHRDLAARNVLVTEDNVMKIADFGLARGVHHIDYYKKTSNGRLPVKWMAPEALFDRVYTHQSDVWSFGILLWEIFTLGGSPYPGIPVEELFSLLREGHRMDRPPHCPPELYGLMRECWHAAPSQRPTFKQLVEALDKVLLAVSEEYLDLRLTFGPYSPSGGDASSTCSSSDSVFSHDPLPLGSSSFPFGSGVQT

C=CC(=O)Nc1ccccc1-c1cc2ccc(-c3c(Cl)c(OC)cc(OC)c3Cl)cc2cn1 [Compound 1]
IC50 (wild type FGFR-4): 100 to 1000 nM

C=CC(=O)Nc1ccccc1-c1ncc2cc(-c3c(Cl)c(OC)cc(OC)c3Cl)ccc2n1 [Compound 2]
IC50 (wild type FGFR-4): 100 to 1000 nM

C=CC(=O)Nc1cccc(-c2ncc3cc(-c4c(Cl)c(OC)cc(OC)c4Cl)ccc3n2)c1 [Compound 3]
IC50 (wild type FGFR-4): > 1000 nM

C=CC(=O)Nc1ccc(F)c(-c2cc3c(cn2)cc(-c2cc(OC)cc(OC)c2)c(=O)n3C(C)C)c1 [Compound 4]
IC50 (wild type FGFR-4): 10 to 100 nM
IC50 [1]: 100 to 1000 nM

C=CC(=O)Nc1ccc(C)c(-c2ncc3cc(-c4c(Cl)c(OC)cc(OC)c4Cl)ccc3n2)c1 [Compound 5]
IC50 (wild type FGFR-4): > 1000 nM

C=CC(=O)N(C)c1cccc(-c2ncc3cc(-c4c(Cl)c(OC)cc(OC)c4Cl)ccc3n2)c1 [Compound 6]
IC50 (wild type FGFR-4): > 1000 nM

C=CC(=O)Nc1cccc(F)c1-c1ncc2cc(-c3c(Cl)c(OC)cc(OC)c3Cl)ccc2n1 [Compound 7]
IC50 [1]: 100 to 1000 nM

C=CC(=O)Nc1ccccc1-c1cc2c(cn1)cc(-c1cc(C(=O)NOC)ccc1Cl)c(=O)n2CC [Compound 9]
IC50 (wild type FGFR-4): < 10 nM
IC50 [1]: 10 to 100 nM

C=CC(=O)Nc1ccc(F)c(-c2cc3c(cn2)cc(-c2cc(OC)cc(OC)c2F)c(=O)n3C(C)C)c1 [Compound 10]
IC50 (wild type FGFR-4): < 10 nM
IC50 [1]: 10 to 100 nM

C=CC(=O)N1CCc2ccc(-c3ncc4cc(-c5c(Cl)c(OC)cc(OC)c5Cl)ccc4n3)cc21 [Compound 11]
IC50 (wild type FGFR-4): 10 to 100 nM

C=CC(=O)Nc1ccc(F)c(-c2cc3c(cn2)cc(-c2cc(OC)cc(OC)c2Cl)c(=O)n3CC)c1 [Compound 12]
IC50 (wild type FGFR-4): < 10 nM
IC50 [1]: < 10 nM

C=CC(=O)Nc1cccc(-c2ncc3cc(-c4c(Cl)c(OC)cc(OC)c4Cl)cc(OC)c3n2)c1 [Compound 13]
IC50 (wild type FGFR-4): 100 to 1000 nM

C=CC(=O)Nc1ccccc1-c1ncc2cc(-c3c(Cl)c(OC)cc(OC)c3Cl)c(OC)cc2n1 [Compound 15]
IC50 (wild type FGFR-4): 100 to 1000 nM

C=CC(=O)N1CCOc2ccc(-c3ncc4cc(-c5c(Cl)c(OC)cc(OC)c5Cl)ccc4n3)cc21 [Compound 16]
IC50 (wild type FGFR-4): 10 to 100 nM

C=CC(=O)Nc1ccc(F)c(-c2cc3c(cn2)cc(-c2c(F)c(OC)cc(OC)c2F)c(=O)n3C(C)C)c1 [Compound 17]
IC50 (wild type FGFR-4): < 10 nM
IC50 [1]: < 10 nM

C=CC(=O)N1CCc2cc(F)c(-c3ncc4cc(-c5c(Cl)c(OC)cc(OC)c5Cl)ccc4n3)cc21 [Compound 18]
IC50 (wild type FGFR-4): < 10 nM
IC50 [1]: 10 to 100 nM

C=CC(=O)Nc1ccccc1-c1cc2c(cn1)cc(-c1c(Cl)c(OC)cc(OC)c1Cl)c(=O)n2CC [Compound 19]
IC50 (wild type FGFR-4): < 10 nM
IC50 [1]: 10 to 100 nM

C=CC(=O)Nc1cccc(-c2cc3c(cn2)cc(-c2c(Cl)c(OC)cc(OC)c2Cl)c(=O)n3CC)c1 [Compound 20]
IC50 (wild type FGFR-4): < 10 nM
IC50 [1]: < 10 nM

C=CC(=O)Nc1ccc(F)c(-c2cc3c(cn2)cc(-c2c(F)c(OC)cc(OC)c2Cl)c(=O)n3CC)c1 [Compound 21]
IC50 (wild type FGFR-4): < 10 nM
IC50 [1]: < 10 nM

C=CC(=O)Nc1cccc(-c2cc3c(cn2)CN(c2c(Cl)c(OC)cc(OC)c2Cl)C(=O)N3CC)c1 [Compound 22]
IC50 (wild type FGFR-4): 10 to 100 nM
IC50 [1]: 10 to 100 nM

C=CC(=O)Nc1ccc(F)c(-c2cc3c(cn2)cc(-c2c(Cl)c(OC)cc(OC)c2Cl)c(=O)n3C)c1 [Compound 23]
IC50 (wild type FGFR-4): < 10 nM
IC50 [1]: 10 to 100 nM

C=CC(=O)N1CCOc2cc(C)c(-c3ncc4cc(-c5c(Cl)c(OC)cc(OC)c5Cl)ccc4n3)cc21 [Compound 24]
IC50 (wild type FGFR-4): 10 to 100 nM
IC50 [1]: 10 to 100 nM

C=CC(=O)Nc1ccccc1-c1cc2c(cn1)cc(-c1c(Cl)c(OC)cc(OC)c1Cl)c(=O)n2C(C)C [Compound 25]
IC50 (wild type FGFR-4): < 10 nM
IC50 [1]: 10 to 100 nM

C=CC(=O)N(C)c1ccccc1-c1cc2c(cn1)cc(-c1c(Cl)c(OC)cc(OC)c1Cl)c(=O)n2CC [Compound 26]
IC50 (wild type FGFR-4): 10 to 100 nM

C=CC(=O)Nc1ccc(C)c(-c2cc3c(cn2)cc(-c2c(Cl)c(OC)cc(OC)c2Cl)c(=O)n3CC)c1 [Compound 27]
IC50 (wild type FGFR-4): 10 to 100 nM
IC50 [1]: 10 to 100 nM

C=CC(=O)N1CCOc2cc(F)c(-c3ncc4cc(-c5c(Cl)c(OC)cc(OC)c5Cl)ccc4n3)cc21 [Compound 28]
IC50 (wild type FGFR-4): < 10 nM
IC50 [1]: 10 to 100 nM

C=CC(=O)Nc1ccc(C)c(-c2cc3c(cn2)CN(c2c(Cl)c(OC)cc(OC)c2Cl)C(=O)N3CC)c1 [Compound 29]
IC50 (wild type FGFR-4): 10 to 100 nM

C=CC(=O)Nc1ccc(F)c(-c2ncc3cc(-c4c(Cl)c(OC)cc(OC)c4Cl)c(=O)n(CC)c3n2)c1 [Compound 30]
IC50 [1]: < 10 nM

C=CC(=O)Nc1ccc(F)c(-c2ncc3cc(-c4c(Cl)c(OC)cc(OC)c4Cl)c(=O)n(CC)c3n2)c1 [Compound 31]
IC50 (wild type FGFR-4): 10 to 100 nM

C=CC(=O)Nc1ccc(F)c(-c2cc3c(cn2)CN(c2c(Cl)c(OC)cc(OC)c2Cl)C(=O)N3CC)c1 [Compound 32]
IC50 (wild type FGFR-4): < 10 nM
IC50 [1]: 10 to 100 nM

C=CC(=O)N1CCC(C)(C)c2ccc(-c3ncc4cc(-c5c(Cl)c(OC)cc(OC)c5Cl)ccc4n3)cc21 [Compound 33]
IC50 (wild type FGFR-4): 100 to 1000 nM

C=CC(=O)N1CC(C)(C)Oc2ccc(-c3ncc4cc(-c5c(Cl)c(OC)cc(OC)c5Cl)ccc4n3)cc21 [Compound 34]
IC50 (wild type FGFR-4): 10 to 100 nM
IC50 [1]: 10 to 100 nM

C=CC(=O)N1CCc2ccc(-c3ncc4cc(-c5c(Cl)c(OC)cc(OC)c5Cl)c(=O)n(CC)c4n3)cc21 [Compound 35]
IC50 [1]: 10 to 100 nM

C=CC(=O)N1CCOc2ccc(-c3ncc4cc(-c5c(Cl)c(OC)cc(OC)c5Cl)c(OC)cc4n3)cc21 [Compound 36]
IC50 (wild type FGFR-4): 10 to 100 nM

C=CC(=O)N1CCOc2ccc(-c3cc4c(cn3)cc(-c3c(Cl)c(OC)cc(OC)c3Cl)c(=O)n4C)cc21 [Compound 37]
IC50 (wild type FGFR-4): < 10 nM

C=CC(=O)N1c2cc(-c3ncc4cc(-c5c(Cl)c(OC)cc(OC)c5Cl)ccc4n3)c(F)cc2OCC1C (stereo not drawn) [Compound 38]
IC50 (wild type FGFR-4): 10 to 100 nM

C=CC(=O)Nc1ccc(F)c(-c2cc3c(cn2)cc(-c2c(Cl)c(OC)cc(OC)c2Cl)c(=O)n3C(C)C)c1 [Compound 40]
IC50 (wild type FGFR-4): < 10 nM
IC50 [1]: < 10 nM

C=CC(=O)Nc1cc(F)c(F)c(-c2cc3c(cn2)cc(-c2c(Cl)c(OC)cc(OC)c2Cl)c(=O)n3CC)c1 [Compound 41]
IC50 (wild type FGFR-4): < 10 nM

C=CC(=O)N1CC(C)(C)Oc2cc(C)c(-c3ncc4cc(-c5c(Cl)c(OC)cc(OC)c5Cl)ccc4n3)cc21 [Compound 44]
IC50 (wild type FGFR-4): 10 to 100 nM

C=CC(=O)N1CCCc2ccc(-c3cc4c(cn3)cc(-c3c(Cl)c(OC)cc(OC)c3Cl)c(=O)n4CC)cc21 [Compound 45]
IC50 (wild type FGFR-4): < 10 nM

C=CC(=O)Nc1ccccc1-c1ncc2cc(-c3c(Cl)c(OC)cc(OC)c3Cl)c(=O)n(C3CCCC3)c2n1 [Compound 46]
IC50 (wild type FGFR-4): 10 to 100 nM

C=CC(=O)N1CCOc2ccc(-c3cc4c(cn3)cc(-c3c(Cl)c(OC)cc(OC)c3Cl)c(=O)n4CC)cc21 [Compound 47]
IC50 (wild type FGFR-4): < 10 nM
IC50 [1]: 10 to 100 nM

C=CC(=O)N1CC(C)(C)Oc2cc(F)c(-c3ncc4cc(-c5c(Cl)c(OC)cc(OC)c5Cl)ccc4n3)cc21 [Compound 48]
IC50 (wild type FGFR-4): 10 to 100 nM

C=CC(=O)Nc1cc(OC(C)C)cc(-c2cc3c(cn2)cc(-c2c(Cl)c(OC)cc(OC)c2Cl)c(=O)n3C)c1 [Compound 49]
IC50 (wild type FGFR-4): 10 to 100 nM

C=CC(=O)N1CCOc2ccc(-c3cc4c(cn3)CN(c3c(Cl)c(OC)cc(OC)c3Cl)C(=O)N4CC)cc21 [Compound 50]
IC50 (wild type FGFR-4): < 10 nM
IC50 [1]: 10 to 100 nM

CCn1c(=O)c(-c2c(Cl)c(OC)cc(OC)c2Cl)cc2cnc(-c3cccc(NC(=O)/C=C/CN(C)C)c3)cc21 [Compound 51]
IC50 (wild type FGFR-4): 10 to 100 nM

C=CC(=O)N1CC(C)(C)Oc2ccc(-c3cc4c(cn3)cc(-c3c(Cl)c(OC)cc(OC)c3Cl)c(=O)n4CC)cc21 [Compound 52]
IC50 [1]: 10 to 100 nM

C=CC(=O)N1c2cc(-c3cc4c(cn3)cc(-c3c(Cl)c(OC)cc(OC)c3Cl)c(=O)n4CC)c(F)cc2OCC1C (stereo not drawn) [Compound 53]
IC50 (wild type FGFR-4): < 10 nM
IC50 [1]: 10 to 100 nM

C=CC(=O)N1CCOc2ccc(-c3cc4c(cn3)cc(-c3c(Cl)c(OC)cc(OC)c3Cl)c(=O)n4C3CCCC3)cc21 [Compound 54]
IC50 (wild type FGFR-4): 10 to 100 nM

C=CC(=O)N1CCOc2ccc(-c3ncc4cc(-c5c(Cl)c(OC)cc(OC)c5Cl)c(=O)n(C5CCCC5)c4n3)cc21 [Compound 55]
IC50 (wild type FGFR-4): 10 to 100 nM

C=CC(=O)N1CCOc2ccc(-c3cc4c(cn3)nc(-c3c(Cl)c(OC)cc(OC)c3Cl)c(=O)n4C3CCCC3)cc21 [Compound 56]
IC50 (wild type FGFR-4): < 10 nM
